Patent US20260356819A1, “OXOISOINDOLINYL-SUBSTITUTED […] DERIVATIVE AND USE THEREOF” (GLUETACS THERAPEUTICS (SHANGHAI) CO., LTD., priority 2023, published 2026)

Tests used:
Assay type in all cases: cell-based
Details in all cases: compounds at 50 nM and 500 nM
GSPT1 = target: T1, GSPT1 (Homo sapiens, UniProt P15170+Q96SW2); assay: Western blot degradation of GSPT1 in hPBMCs (24 h)
T1 construct: The supernatant was aspirated as the extracted total cell protein; endogenous in cells; host or cells: human peripheral blood mononuclear cells (hPBMCs)
T1 sequence (P15170 whole entry): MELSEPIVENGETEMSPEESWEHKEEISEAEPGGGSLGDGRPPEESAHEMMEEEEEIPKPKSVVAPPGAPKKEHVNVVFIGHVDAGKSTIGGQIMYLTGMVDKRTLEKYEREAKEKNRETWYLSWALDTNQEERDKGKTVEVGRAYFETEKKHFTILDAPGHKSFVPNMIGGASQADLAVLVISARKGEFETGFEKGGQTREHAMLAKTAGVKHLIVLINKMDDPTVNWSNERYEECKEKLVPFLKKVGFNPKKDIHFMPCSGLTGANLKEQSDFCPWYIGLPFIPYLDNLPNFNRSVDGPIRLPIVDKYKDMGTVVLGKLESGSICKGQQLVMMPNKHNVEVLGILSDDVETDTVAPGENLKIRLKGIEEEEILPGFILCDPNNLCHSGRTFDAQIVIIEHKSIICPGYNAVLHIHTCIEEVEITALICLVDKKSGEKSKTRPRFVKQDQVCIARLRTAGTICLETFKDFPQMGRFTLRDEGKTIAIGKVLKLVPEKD
T1 sequence (Q96SW2 whole entry): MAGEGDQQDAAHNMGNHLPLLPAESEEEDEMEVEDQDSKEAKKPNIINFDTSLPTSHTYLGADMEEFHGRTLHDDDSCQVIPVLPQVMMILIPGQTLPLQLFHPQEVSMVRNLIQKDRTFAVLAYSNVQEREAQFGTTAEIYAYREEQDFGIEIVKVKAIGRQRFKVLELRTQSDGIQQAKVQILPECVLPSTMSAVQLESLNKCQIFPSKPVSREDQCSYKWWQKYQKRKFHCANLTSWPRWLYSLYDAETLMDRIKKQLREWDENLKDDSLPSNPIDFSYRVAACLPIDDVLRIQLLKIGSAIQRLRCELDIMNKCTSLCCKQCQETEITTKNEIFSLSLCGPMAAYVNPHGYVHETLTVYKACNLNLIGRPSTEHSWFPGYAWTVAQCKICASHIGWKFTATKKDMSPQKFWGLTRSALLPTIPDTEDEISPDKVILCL
T1 sequence (Q16531 whole entry partner): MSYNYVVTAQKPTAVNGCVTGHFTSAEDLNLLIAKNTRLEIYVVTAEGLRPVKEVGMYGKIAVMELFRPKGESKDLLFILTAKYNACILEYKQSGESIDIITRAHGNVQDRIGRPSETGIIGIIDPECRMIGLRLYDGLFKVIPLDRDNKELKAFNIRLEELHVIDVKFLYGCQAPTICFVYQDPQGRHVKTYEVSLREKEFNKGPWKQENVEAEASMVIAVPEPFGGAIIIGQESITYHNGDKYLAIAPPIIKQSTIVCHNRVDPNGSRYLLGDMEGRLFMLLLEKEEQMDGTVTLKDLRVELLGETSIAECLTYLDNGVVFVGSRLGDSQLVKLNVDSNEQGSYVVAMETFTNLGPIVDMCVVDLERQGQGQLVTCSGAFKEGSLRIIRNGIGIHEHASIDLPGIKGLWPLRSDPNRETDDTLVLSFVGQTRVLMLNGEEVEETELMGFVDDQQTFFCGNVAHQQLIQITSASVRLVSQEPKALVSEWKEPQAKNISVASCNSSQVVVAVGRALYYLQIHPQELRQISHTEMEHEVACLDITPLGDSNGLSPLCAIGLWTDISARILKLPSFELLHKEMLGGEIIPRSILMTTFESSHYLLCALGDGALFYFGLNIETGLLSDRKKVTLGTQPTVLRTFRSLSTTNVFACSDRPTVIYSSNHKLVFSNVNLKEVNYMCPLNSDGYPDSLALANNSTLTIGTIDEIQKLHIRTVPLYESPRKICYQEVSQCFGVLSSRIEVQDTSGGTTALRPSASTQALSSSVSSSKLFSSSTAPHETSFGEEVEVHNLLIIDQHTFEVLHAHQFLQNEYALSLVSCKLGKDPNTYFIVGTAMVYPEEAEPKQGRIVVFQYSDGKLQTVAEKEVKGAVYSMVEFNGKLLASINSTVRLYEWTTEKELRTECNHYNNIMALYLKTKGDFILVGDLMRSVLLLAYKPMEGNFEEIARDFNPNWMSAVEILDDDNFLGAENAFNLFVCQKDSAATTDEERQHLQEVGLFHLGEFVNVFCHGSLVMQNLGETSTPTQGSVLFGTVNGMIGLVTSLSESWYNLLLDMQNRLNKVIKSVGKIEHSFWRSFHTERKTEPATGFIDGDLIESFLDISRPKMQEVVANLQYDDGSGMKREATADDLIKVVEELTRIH
In short: (§1)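 hPBMCs (1×10^6 cells/mL) were treated with compound at 50 nM and 500 nM for 24 h, lysed in RIPA with protease inhibitors and analysed by SDS-PAGE/Western blot. Band grayscale, normalised to internal control, gave protein remaining (%); DC50 estimated versus DMSO bands.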

CK1α = target: T2, CK1α (Homo sapiens, UniProt P48729+Q96SW2); assay: Western blot degradation of CK1α in hPBMCs (24 h)
T2 construct: The supernatant was aspirated as the extracted total cell protein; endogenous in cells; host or cells: human peripheral blood mononuclear cells (hPBMCs)
T2 sequence (P48729 whole entry): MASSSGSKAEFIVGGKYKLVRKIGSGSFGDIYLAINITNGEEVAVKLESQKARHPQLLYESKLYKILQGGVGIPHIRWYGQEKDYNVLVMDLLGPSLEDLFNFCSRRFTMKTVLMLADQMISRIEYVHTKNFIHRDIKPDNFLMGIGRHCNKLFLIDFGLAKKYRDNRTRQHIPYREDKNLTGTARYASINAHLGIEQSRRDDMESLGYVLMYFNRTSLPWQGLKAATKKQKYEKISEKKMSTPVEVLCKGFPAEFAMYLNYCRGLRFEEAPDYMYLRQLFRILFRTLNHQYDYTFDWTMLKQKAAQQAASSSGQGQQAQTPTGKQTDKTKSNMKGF
T2 sequence (Q96SW2 whole entry): as the sequence (Q96SW2 whole entry) above
T2 sequence (Q16531 whole entry partner): as the sequence (Q16531 whole entry partner) above
In short: as §1

IKZF1 = target: T3, IKZF1 (Homo sapiens, UniProt Q13422+Q96SW2); assay: Western blot degradation of IKZF1 in hPBMCs (24 h)
T3 construct: The supernatant was aspirated as the extracted total cell protein; endogenous in cells; host or cells: human peripheral blood mononuclear cells (hPBMCs)
T3 sequence (Q13422 whole entry): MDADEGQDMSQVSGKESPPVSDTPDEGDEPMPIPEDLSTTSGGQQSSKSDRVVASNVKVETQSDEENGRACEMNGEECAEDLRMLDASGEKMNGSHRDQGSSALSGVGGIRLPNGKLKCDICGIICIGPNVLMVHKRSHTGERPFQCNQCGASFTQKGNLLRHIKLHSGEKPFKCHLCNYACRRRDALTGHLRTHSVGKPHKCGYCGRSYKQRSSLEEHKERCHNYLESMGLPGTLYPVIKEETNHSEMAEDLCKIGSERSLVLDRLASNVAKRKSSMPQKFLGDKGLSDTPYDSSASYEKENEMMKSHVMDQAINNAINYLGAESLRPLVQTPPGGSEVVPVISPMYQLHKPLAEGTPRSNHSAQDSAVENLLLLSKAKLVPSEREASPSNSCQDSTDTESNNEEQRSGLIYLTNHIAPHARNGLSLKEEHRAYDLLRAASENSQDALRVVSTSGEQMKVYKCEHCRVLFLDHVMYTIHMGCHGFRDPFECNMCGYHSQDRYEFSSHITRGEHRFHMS
T3 sequence (Q96SW2 whole entry): as the sequence (Q96SW2 whole entry) above
T3 sequence (Q16531 whole entry partner): as the sequence (Q16531 whole entry partner) above
In short: as §1

IKZF3 = target: T4, IKZF3 (Homo sapiens, UniProt Q96SW2+Q9UKT9); assay: Western blot degradation of IKZF3 in hPBMCs (24 h)
T4 construct: The supernatant was aspirated as the extracted total cell protein; endogenous in cells; host or cells: human peripheral blood mononuclear cells (hPBMCs)
T4 sequence (Q9UKT9 whole entry): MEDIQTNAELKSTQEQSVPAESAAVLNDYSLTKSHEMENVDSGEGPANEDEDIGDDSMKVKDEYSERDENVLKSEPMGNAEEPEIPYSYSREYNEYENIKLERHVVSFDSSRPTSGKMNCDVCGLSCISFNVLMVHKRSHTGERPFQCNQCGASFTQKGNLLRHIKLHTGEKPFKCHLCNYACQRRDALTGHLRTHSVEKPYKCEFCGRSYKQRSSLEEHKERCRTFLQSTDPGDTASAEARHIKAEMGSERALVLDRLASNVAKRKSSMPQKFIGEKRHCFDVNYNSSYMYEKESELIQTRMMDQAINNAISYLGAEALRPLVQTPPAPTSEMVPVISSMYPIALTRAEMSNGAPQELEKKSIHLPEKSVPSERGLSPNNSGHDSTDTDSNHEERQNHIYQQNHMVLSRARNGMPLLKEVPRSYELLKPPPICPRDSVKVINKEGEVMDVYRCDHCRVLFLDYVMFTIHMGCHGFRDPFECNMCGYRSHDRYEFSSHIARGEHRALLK
T4 sequence (Q96SW2 whole entry): as the sequence (Q96SW2 whole entry) above
T4 sequence (Q16531 whole entry partner): as the sequence (Q16531 whole entry partner) above
In short: as §1

WEE1 = target: T5, WEE1 (Homo sapiens, UniProt P30291+Q96SW2); assay: Western blot degradation of WEE1 in hPBMCs (24 h)
T5 construct: The supernatant was aspirated as the extracted total cell protein; endogenous in cells; host or cells: human peripheral blood mononuclear cells (hPBMCs)
In short: as §1

IKZF2 = target: T6, IKZF2 (Homo sapiens, UniProt Q96SW2+Q9UKS7); assay: Western blot degradation of IKZF2 in hPBMCs (24 h)
T6 construct: The supernatant was aspirated as the extracted total cell protein; endogenous in cells; host or cells: human peripheral blood mononuclear cells (hPBMCs)
T6 sequence (Q9UKS7 whole entry): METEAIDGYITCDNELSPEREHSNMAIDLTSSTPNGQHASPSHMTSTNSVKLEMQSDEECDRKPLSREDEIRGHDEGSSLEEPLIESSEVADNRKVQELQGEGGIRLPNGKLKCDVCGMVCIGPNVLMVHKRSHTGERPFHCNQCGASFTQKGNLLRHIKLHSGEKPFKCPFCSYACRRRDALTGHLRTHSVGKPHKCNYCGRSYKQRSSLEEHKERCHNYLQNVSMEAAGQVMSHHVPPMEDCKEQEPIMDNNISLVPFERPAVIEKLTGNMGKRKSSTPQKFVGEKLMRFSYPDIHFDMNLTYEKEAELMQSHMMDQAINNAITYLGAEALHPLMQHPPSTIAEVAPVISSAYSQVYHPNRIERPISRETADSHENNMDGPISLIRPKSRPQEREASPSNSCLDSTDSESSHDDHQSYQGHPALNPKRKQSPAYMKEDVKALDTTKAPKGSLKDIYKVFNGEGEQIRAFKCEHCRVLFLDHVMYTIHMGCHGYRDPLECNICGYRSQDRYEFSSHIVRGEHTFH
T6 sequence (Q96SW2 whole entry): as the sequence (Q96SW2 whole entry) above
T6 sequence (Q16531 whole entry partner): as the sequence (Q16531 whole entry partner) above
In short: as §1

O=C1CCN(N2C(=O)c3ccc(CN4CCN(C(c5ccccc5)c5cccnc5)CC4)cc3C2=O)C(=O)N1 (stereo not drawn) [GT-06377, 2-(2,4-dioxotetrahydropyrimidin-1(2H)-yl)-5-((4-(phenyl(pyridin-3-yl)methyl)piperazin-1-yl)methyl)isoindoline-1,3-dione]
GSPT1 substrate protein remaining % (GSPT1): B (80%< substrate protein remaining % ≤100%)
CK1α substrate protein remaining % (CK1α): B (80%< substrate protein remaining % ≤100%)
IKZF1 substrate protein remaining % (IKZF1): B (80%< substrate protein remaining % ≤100%)
IKZF3 substrate protein remaining % (IKZF3): B (80%< substrate protein remaining % ≤100%)
WEE1 substrate protein remaining % (WEE1): A (0% ≤ substrate protein remaining % ≤80%)
IKZF2 substrate protein remaining % (IKZF2): A (0% ≤ substrate protein remaining % ≤80%)

O=C1CCN(N2C(=O)c3ccc(CN4CCN(C(c5ccccc5)c5ccncc5)CC4)cc3C2=O)C(=O)N1 (stereo not drawn) [GT-06378, 2-(2,4-dioxotetrahydropyrimidin-1(2H)-yl)-5-((4-(phenyl(pyridin-4-yl)methyl)piperazin-1-yl)methyl)isoindoline-1,3-dione]
GSPT1 substrate protein remaining % (GSPT1): B (80%< substrate protein remaining % ≤100%)
CK1α substrate protein remaining % (CK1α): B (80%< substrate protein remaining % ≤100%)
IKZF1 substrate protein remaining % (IKZF1): B (80%< substrate protein remaining % ≤100%)
IKZF3 substrate protein remaining % (IKZF3): A (0% ≤ substrate protein remaining % ≤80%)
WEE1 substrate protein remaining % (WEE1): A (0% ≤ substrate protein remaining % ≤80%)
IKZF2 substrate protein remaining % (IKZF2): A (0% ≤ substrate protein remaining % ≤80%)

O=C1CCN(N2C(=O)c3ccc(CN4CCN(C(c5ccccn5)c5ccccn5)CC4)cc3C2=O)C(=O)N1 [GT-06379, 5-((4-(di(pyridin-2-yl)methyl)piperazin-1-yl)methyl)-2-(2,4-dioxotetrahydropyrimidin-1(2H)-yl)isoindoline-1,3-dione]
GSPT1 substrate protein remaining % (GSPT1): A (0% ≤ substrate protein remaining % ≤80%)
CK1α substrate protein remaining % (CK1α): B (80%< substrate protein remaining % ≤100%)
IKZF1 substrate protein remaining % (IKZF1): B (80%< substrate protein remaining % ≤100%)
IKZF3 substrate protein remaining % (IKZF3): A (0% ≤ substrate protein remaining % ≤80%)
WEE1 substrate protein remaining % (WEE1): A (0% ≤ substrate protein remaining % ≤80%)
IKZF2 substrate protein remaining % (IKZF2): A (0% ≤ substrate protein remaining % ≤80%)

CC1(C)CN(Cc2ccc3c(c2)C(=O)N(N2CCC(=O)NC2=O)C3=O)CCN1C(c1ccccc1)c1ccccc1 [GT-06385, 5-((4-benzhydryl-3,3-dimethylpiperazin-1-yl)methyl)-2-(2,4-dioxotetrahydropyrimidin-1(2H)-yl)isoindoline-1,3-dione]
GSPT1 substrate protein remaining % (GSPT1): A (0% ≤ substrate protein remaining % ≤80%)
CK1α substrate protein remaining % (CK1α): B (80%< substrate protein remaining % ≤100%)
IKZF1 substrate protein remaining % (IKZF1): B (80%< substrate protein remaining % ≤100%)
IKZF3 substrate protein remaining % (IKZF3): A (0% ≤ substrate protein remaining % ≤80%)
WEE1 substrate protein remaining % (WEE1): A (0% ≤ substrate protein remaining % ≤80%)
IKZF2 substrate protein remaining % (IKZF2): B (80%< substrate protein remaining % ≤100%)

O=C1CCN(N2Cc3cc(CN4CCC(c5nccc(Cl)c5Cl)CC4)ccc3C2=O)C(=O)N1 [GT-06388, 1-(5-((4-(3,4-dichloropyridin-2-yl)piperidin-1-yl)methyl)-1-oxoisoindolin-2-yl)dihydropyrimidine-2,4(1H,3H)-dione]
GSPT1 substrate protein remaining % (GSPT1): A (0% ≤ substrate protein remaining % ≤80%)
CK1α substrate protein remaining % (CK1α): B (80%< substrate protein remaining % ≤100%)
IKZF1 substrate protein remaining % (IKZF1): B (80%< substrate protein remaining % ≤100%)
IKZF3 substrate protein remaining % (IKZF3): B (80%< substrate protein remaining % ≤100%)
WEE1 substrate protein remaining % (WEE1): B (80%< substrate protein remaining % ≤100%)
IKZF2 substrate protein remaining % (IKZF2): B (80%< substrate protein remaining % ≤100%)

O=C1CCN(N2Cc3cc(CN4CCC(c5ccnc(Cl)c5Cl)CC4)ccc3C2=O)C(=O)N1 [GT-06390, 1-(5-((4-(2,3-dichloropyridin-4-yl)piperidin-1-yl)methyl)-1-oxoisoindolin-2-yl)dihydropyrimidine-2,4(1H,3H)-dione]
GSPT1 substrate protein remaining % (GSPT1): A (0% ≤ substrate protein remaining % ≤80%)
CK1α substrate protein remaining % (CK1α): B (80%< substrate protein remaining % ≤100%)
IKZF1 substrate protein remaining % (IKZF1): B (80%< substrate protein remaining % ≤100%)
IKZF3 substrate protein remaining % (IKZF3): B (80%< substrate protein remaining % ≤100%)
WEE1 substrate protein remaining % (WEE1): B (80%< substrate protein remaining % ≤100%)
IKZF2 substrate protein remaining % (IKZF2): B (80%< substrate protein remaining % ≤100%)

O=C1CCN(N2Cc3cc(CN4CC=C(c5cncc(Cl)c5)CC4)ccc3C2=O)C(=O)N1 [GT-06394, 1-(5-((5-chloro-3′,6′-dihydro-[3,4′-bipyridin]-1′ (2′H)-yl)methyl)-1-oxoisoindolin-2-yl)dihydropyrimidine-2,4(1H,3H)-dione]
GSPT1 substrate protein remaining % (GSPT1): A (0% ≤ substrate protein remaining % ≤80%)
CK1α substrate protein remaining % (CK1α): A (0% ≤ substrate protein remaining % ≤80%)
IKZF1 substrate protein remaining % (IKZF1): B (80%< substrate protein remaining % ≤100%)
IKZF3 substrate protein remaining % (IKZF3): B (80%< substrate protein remaining % ≤100%)
WEE1 substrate protein remaining % (WEE1): B (80%< substrate protein remaining % ≤100%)
IKZF2 substrate protein remaining % (IKZF2): A (0% ≤ substrate protein remaining % ≤80%)

O=C1CCN(N2Cc3cc(CN4CC=C(c5ncccc5F)CC4)ccc3C2=O)C(=O)N1 [GT-06395, 1-(5-((3-fluoro-3′,6′-dihydro-[2,4′-bipyridin]-1′ (2′H)-yl)methyl)-1-oxoisoindolin-2-yl)dihydropyrimidine-2,4(1H,3H)-dione]
GSPT1 substrate protein remaining % (GSPT1): A (0% ≤ substrate protein remaining % ≤80%)
CK1α substrate protein remaining % (CK1α): A (0% ≤ substrate protein remaining % ≤80%)
IKZF1 substrate protein remaining % (IKZF1): B (80%< substrate protein remaining % ≤100%)
IKZF3 substrate protein remaining % (IKZF3): B (80%< substrate protein remaining % ≤100%)
WEE1 substrate protein remaining % (WEE1): B (80%< substrate protein remaining % ≤100%)
IKZF2 substrate protein remaining % (IKZF2): B (80%< substrate protein remaining % ≤100%)

O=C1CCN(N2Cc3cc(CN4CCC(c5ccnc(F)c5F)CC4)ccc3C2=O)C(=O)N1 [GT-06396, 1-(5-((4-(2,3-difluoropyridin-4-yl)piperidin-1-yl)methyl)-1-oxoisoindolin-2-yl)dihydropyrimidine-2,4(1H,3H)-dione]
GSPT1 substrate protein remaining % (GSPT1): B (80%< substrate protein remaining % ≤100%)
CK1α substrate protein remaining % (CK1α): A (0% ≤ substrate protein remaining % ≤80%)
IKZF1 substrate protein remaining % (IKZF1): B (80%< substrate protein remaining % ≤100%)
IKZF3 substrate protein remaining % (IKZF3): B (80%< substrate protein remaining % ≤100%)
WEE1 substrate protein remaining % (WEE1): B (80%< substrate protein remaining % ≤100%)
IKZF2 substrate protein remaining % (IKZF2): B (80%< substrate protein remaining % ≤100%)

O=C1CCN(N2Cc3cc(CN4CC=C(c5ccnc(F)c5F)CC4)ccc3C2=O)C(=O)N1 [GT-06397, 1-(5-((2′,3′-difluoro-3,6-dihydro-[4,4′-bipyridin]-1(2H)-yl)methyl)-1-oxoisoindolin-2-yl)dihydropyrimidine-2,4(1H,3H)-dione]
GSPT1 substrate protein remaining % (GSPT1): A (0% ≤ substrate protein remaining % ≤80%)
CK1α substrate protein remaining % (CK1α): B (80%< substrate protein remaining % ≤100%)
IKZF1 substrate protein remaining % (IKZF1): B (80%< substrate protein remaining % ≤100%)
IKZF3 substrate protein remaining % (IKZF3): B (80%< substrate protein remaining % ≤100%)
WEE1 substrate protein remaining % (WEE1): A (0% ≤ substrate protein remaining % ≤80%)
IKZF2 substrate protein remaining % (IKZF2): A (0% ≤ substrate protein remaining % ≤80%)

CC1CN(Cc2ccc3c(c2)C(=O)N(N2CCC(=O)NC2=O)C3=O)CC(C)N1C(c1ccccc1)c1ccccc1 (stereo not drawn) [GT-06430, 5-((4-benzhydryl-3,5-dimethylpiperazin-1-yl)methyl)-2-(2,4-dioxotetrahydropyrimidin-1(2H)-yl)isoindoline-1,3-dione]
GSPT1 substrate protein remaining % (GSPT1): A (0% ≤ substrate protein remaining % ≤80%)
CK1α substrate protein remaining % (CK1α): B (80%< substrate protein remaining % ≤100%)
IKZF1 substrate protein remaining % (IKZF1): A (0% ≤ substrate protein remaining % ≤80%)
IKZF3 substrate protein remaining % (IKZF3): A (0% ≤ substrate protein remaining % ≤80%)
WEE1 substrate protein remaining % (WEE1): A (0% ≤ substrate protein remaining % ≤80%)
IKZF2 substrate protein remaining % (IKZF2): B (80%< substrate protein remaining % ≤100%)

CC1CN(Cc2ccc3c(c2)CN(N2CCC(=O)NC2=O)C3=O)CC(C)N1C(c1ccccc1)c1ccccc1 (stereo not drawn) [GT-06431, 1-(5-((4-benzhydryl-3,5-dimethylpiperazin-1-yl)methyl)-1-oxoisoindolin-2-yl)dihydropyrimidine-2,4(1H,3H)-dione]
GSPT1 substrate protein remaining % (GSPT1): A (0% ≤ substrate protein remaining % ≤80%)
CK1α substrate protein remaining % (CK1α): B (80%< substrate protein remaining % ≤100%)
IKZF1 substrate protein remaining % (IKZF1): A (0% ≤ substrate protein remaining % ≤80%)
IKZF3 substrate protein remaining % (IKZF3): B (80%< substrate protein remaining % ≤100%)
WEE1 substrate protein remaining % (WEE1): A (0% ≤ substrate protein remaining % ≤80%)
IKZF2 substrate protein remaining % (IKZF2): A (0% ≤ substrate protein remaining % ≤80%)
